6 compounds from patent publication US20090176847A1, “Dicyclooctane Derivatives, Preparation Processes and Medical Uses Thereof” (priority 2006, published 2009) can be followed below.

Broadly, the pIC50 is −log10 of the IC50, conventionally taken in molar units.

The target of assay [1] is T1, Dipeptidylpeptidase IV, Human Placenta (Homo sapiens, UniProt P27487).
T1 construct: Dipeptidylpeptidase IV, Human Placenta (cat. 317630) of Calbiochem company; purchased Calbiochem 317630; host or cells: human placenta (tissue-derived natural enzyme)
As to the kind of experiment: Active inhibition DPP IV assay (DPP IV-Glo Protease Assay Kit, chemical luminescent). It is filed as biochemical. The following applies: chemiluminescence, two parallel treatments. The protocol:
IC50 is determined by a NovoStar ELIASA (BMG Co. German).
According to the manual of the kit, this invention inspected the amount of the each reagent in the experimental, corresponding amount of DPPIV enzyme and chemiluminescence detection methods.

The next assay relates to normal ICR mice. As to the kind of experiment: Preliminary evaluation of hypoglycemic activity: effects on glucose tolerance in normal ICR mice. It is filed as in vivo. The conditions noted are these: oral 0.3, 1, 3, 10 mg/kg, serum glucose. The procedure:
Effects on glucose tolerance in normal ICR mice of examples 15 and 16 were determined. Hypoglycemic activities in vivo were preliminary evaluated. Preparation procedure: drugs were accurately weighed and dissolved in double-distilled water, misce bene to obtain 0.5 mg/ml suspension, then diluted into colorless and clear solutions which concentration were 0.15, 0.05 and 0.015 mg/ml. Administrated Dose: the oral doses were 0.3, 1, 3, 10 mg/kg and the volume was 20 ml/kg. […] Glucose kits was used in the determination of serum glucose levels. Take 250 μl enzyme fluid, then add 5 μl serum. Establish blank tube (by added 5 μl double-distilled) and the standard tube (by added 5 μl standard glucose solution) simultaneously, misce bene. 37° C. water bath for 20 min. To adjust to zero value with blank tube, OD(505 nm) levels were determined. Serum glucose level BG(mmol/l)=ODsample tube/ODstandard tube×5.55.

pIC50: −log10 of the molar value. Structures can show the parent of a compound that is named as a salt.

T1 sequence (P27487 whole entry): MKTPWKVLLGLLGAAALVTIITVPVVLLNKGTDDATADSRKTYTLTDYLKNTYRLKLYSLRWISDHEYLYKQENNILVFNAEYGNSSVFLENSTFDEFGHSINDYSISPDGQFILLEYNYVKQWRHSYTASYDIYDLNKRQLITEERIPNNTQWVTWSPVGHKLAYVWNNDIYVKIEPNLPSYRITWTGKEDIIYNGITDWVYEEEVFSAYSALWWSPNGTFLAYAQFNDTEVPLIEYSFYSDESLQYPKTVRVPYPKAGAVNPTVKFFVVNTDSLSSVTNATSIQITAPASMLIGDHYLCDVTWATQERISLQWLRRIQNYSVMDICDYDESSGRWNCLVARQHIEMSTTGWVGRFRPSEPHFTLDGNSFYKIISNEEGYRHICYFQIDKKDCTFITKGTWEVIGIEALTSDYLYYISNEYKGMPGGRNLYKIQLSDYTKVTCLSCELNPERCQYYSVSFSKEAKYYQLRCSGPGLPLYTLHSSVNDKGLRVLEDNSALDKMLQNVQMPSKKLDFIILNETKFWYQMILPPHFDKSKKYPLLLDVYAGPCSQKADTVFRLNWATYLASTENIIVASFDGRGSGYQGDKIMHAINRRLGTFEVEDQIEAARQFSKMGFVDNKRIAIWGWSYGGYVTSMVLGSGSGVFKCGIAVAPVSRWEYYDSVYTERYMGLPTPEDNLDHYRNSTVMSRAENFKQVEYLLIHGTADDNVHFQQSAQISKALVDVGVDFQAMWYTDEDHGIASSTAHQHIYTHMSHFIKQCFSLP

Compound `CC(C)NC(=O)OC1CC2CC(NCC(=O)N3CCCC3C#N)CC2C1` (stereo not shown) [Example 7, 5-[2-(2-cyano-pyrrolidin-1-yl)-2-oxo-ethylamino]-octahydro-pentalen-2-yl isopropyl-carbamate hydrochloride] gave a pIC50 in assay [1] of 6.69.

For `Cl.N#CC1CCCN1C(=O)CNC1CC2CC(O)CC2C1` (stereo not shown) [Example 16, 1-(2-(5-hydroxyl-octahydro-pentalen-2-ylamino)-acetyl)pyrrolidine-2-carbonitrile hydrochloride], in the assay with normal ICR mice, the “in vivo activity compared with positive control LAF-237” value is recorded as “slightly better than LAF-237” and the “inhibitor activity of DPPIV in vivo (hypoglycemic activity, glucose tolerance)” value was “good inhibitor activities of DPPIV in vivo”. Compound `CC(C)(C)NC(=O)OC1CC2CC(NCC(=O)N3CCCC3C#N)CC2C1` (stereo not shown) [Example 8, 5-[2-(2-cyano-pyrrolidin-1-yl)-2-oxo-ethylamino]-octahydro-pentalen-2-yl tert-butyl-carbamate hydrochloride] showed a pIC50 in assay [1] of 6.49.

For `N#CC1CCCN1C(=O)CNC1CC2CC(OC(=O)Nc3ccccc3)CC2C1` (stereo not shown) [Example 6, 5-[2-(2-cyano-pyrrolidin-1-yl)-2-oxo-ethylamino]-octahydro-pentalen-2-yl phenyl-carbamate hydrochloride], the pIC50 in assay [1] was 6.92. As for `Cl.N#CC1CCCN1C(=O)CNC1CC2CC(=O)CC2C1` (stereo not shown) [Example 15, 1-[2-(5-oxo-octahydro-pentalen-2-ylamino)-acetyl]-pyrrolidine-2-carbonitrile hydrochloride], in the assay with normal ICR mice, the “inhibitor activity of DPPIV in vivo (hypoglycemic activity, glucose tolerance)” value is given as “good inhibitor activities of DPPIV in vivo”. Compound `CCCCC1(O)CC2CC(NCC(=O)N3CCCC3C#N)CC2C1` (stereo not shown) [Example 10, 1-[2-(5-butyl-5-hydroxy-octahydro-pentalen-2-ylamino)-acetyl]-pyrrolidine-2-carbonitrilehydrochloride] showed a pIC50 in assay [1] of 7.74.
